Reference: patent US7192746B2, “α-Isomaltosyltransferase, process for producing the same and use thereof” (Kabushiki Kaisha Hayashibara Seibutsu Kagaku Kenkyujo, priority 2000, dated 2007)
Read-outs that look alike come from different tables or passages of the source.

Tests used:
[1] = tested on: Lactobacillus acidophilus JCM 1132 strain; assay: Assimilation test; assay type: cell-based; conditions: PYF medium with 0.5% saccharide, 37° C., four days, anaerobic
[2] = tested on: small intestinal mucosal enzyme
[3] = Saturation concentration of cyclotetrasaccharide in water; assay type: physicochemical; conditions: for Saturation concentration of cyclotetrasaccharide: water
Text: The resulting each saturated solution of cyclotetrasaccharide was membrane filtered to remove undissolved cyclotetrasaccharide, and each filtrate was then examined for moisture content by the drying loss method and determined for a saturation concentration of cyclotetrasaccharide at respective temperatures.

[4] = tested on: small intestinal mucosal enzyme; assay: Digestion test in vitro

Row | Compound | Assimilability [1] | Decomposition percentage by digestive enzyme [2] | Digestibility by intestinal mucosal enzyme relative to maltitol [2] | Weight of cyclotetrasaccharide dissolved in 100 g water ([3]; 10° C.) | Weight of cyclotetrasaccharide dissolved in 100 g water ([3]; 30° C.) | Weight of cyclotetrasaccharide dissolved in 100 g water ([3]; 50° C.) | Weight of cyclotetrasaccharide dissolved in 100 g water ([3]; 70° C.) | Weight of cyclotetrasaccharide dissolved in 100 g water ([3]; 90° C.) | Saturation concentration of cyclotetrasaccharide ([3]; 10° C.) | Saturation concentration of cyclotetrasaccharide ([3]; 30° C.) | Saturation concentration of cyclotetrasaccharide ([3]; 50° C.) | Saturation concentration of cyclotetrasaccharide ([3]; 70° C.) | Saturation concentration of cyclotetrasaccharide ([3]; 90° C.) | Decomposition percentage by digestive enzyme [4]
1 | OCC1OC2OCC3O[C@H](O[C@H]4C(O)C(CO)OC(OCC5O[C@H](O[C@@H](C1O)C2O)C(O)C(O)[C@@H]5O)C4O)C(O)C(O)[C@@H]3O (stereo partly drawn) [Cyclotetrasaccharide, cyclo{→6)-α-D-glucopyranosyl-(1→3)-α-D-glucopyranosyl-(1→6)-α-D-glucopyranosyl-(1→3)-α-D-glucopyranosyl-(1→}] | − (negative (−) when the post culture had a pH of 6.0 or higher) | 0.74% | ⅕ | 43.5 g | 51.9 g | 74.2 g | 112.7 g | 239.0 g | 30.3% | 34.2% | 42.6% | 53.0% | 70.5% | –
2 | OC[C@@H](O)[C@@H](O[C@H]1O[C@H](CO)[C@@H](O)[C@H](O)[C@H]1O)[C@H](O)[C@@H](O)CO [Maltitol, maltitol] | – | – | – | – | – | – | – | – | – | – | – | – | – | 4.0%
